`CS(=O)(=O)c1ccc(-c2cnn(-c3ccc(F)cc3)c(=O)c2N2CCCC2)cc1` [Example 356, 2-(4-Fluorophenyl)-4-(1-pyrrolidinyl)-5-[4-(methylsulfonyl)phenyl]-3(2H)-pyridazinone] displayed a melting point of 192 to 195 °C.
For the compound `CS(=O)(=O)c1ccc(-c2cnn(-c3ccc(F)c(F)c3)c(=O)c2Cc2ccc(F)c(F)c2)cc1` [Example 255, 2-(3,4-Difluorophenyl)-4-(3,4-difluorobenzyl)-5-[4-(methylsulfonyl)phenyl]-3(2H)-pyridazinone], the melting point fell in the range of 177 to 179 °C.
Compound `CC(C)CCOc1c(-c2ccc(S(C)(=O)=O)cc2)cnn(-c2ccc(Cl)c(Cl)c2)c1=O` [Example 540, 2-(3,4-Dichlorophenyl)-4-(3-methyl-1-butoxy)-5-[4-(methylsulfonyl)phenyl]-3(2H)-pyridazinone] returned a melting point of 130 to 134 °C.
The figure for `CC(C)(C)c1ccc(-n2ncc(-c3ccc(S(C)(=O)=O)cc3)c(-c3ccc(F)cc3)c2=O)cc1` [Example 159, 2-(4-t-Butylphenyl)-4-(4-fluorophenyl)-5-[4-(methylsulfonyl)phenyl]-3(2H)-pyridazinone] is 132 to 136 °C; for `C=CCc1c(-c2ccc(S(C)(=O)=O)cc2)cnn(CC(F)(F)F)c1=O` [Example 222, 2-(2,2,2-Trifluoroethyl)-4-(2-propenyl)-5-[4-(methylsulfonyl)phenyl]-3(2H)-pyridazinone] it is 192 to 195 °C.
In the case of `CS(=O)(=O)c1ccc(-c2cnn(-c3ccc(F)cc3)c(=O)c2OCC2CC2)cc1` [Example 416, 2-(4-Fluorophenyl)-4-cyclopropylmethoxy-5-[4-(methylsulfonyl)phenyl]-3(2H)-pyridazinone], the melting point lay within 166 to 167 °C.
The figure for `CC(C)Oc1c(-c2ccc(S(C)(=O)=O)cc2)cnn(-c2ccc(F)cc2)c1=O` [Example 200, 2-(4-Fluorophenyl)-4-(2-propoxy)-5-[4-(methylsulfonyl)phenyl]-3(2H)-pyridazinone] is 160 to 162 °C; for `CC#Cc1c(-c2ccc(S(C)(=O)=O)cc2)cnn(-c2ccc(F)c(F)c2)c1=O` [Example 238, 2-(3,4-Difluorophenyl)-4-(1-propynyl)-5-[4-(methylsulfonyl)phenyl]-3(2H)-pyridazinone] it is 149 to 150 °C; for `CS(=O)(=O)c1ccc(-c2cnn(-c3ccccc3C=O)c(=O)c2-c2ccc(F)cc2)cc1` [Example 163, 2-(2-Formylphenyl)-4-(4-fluorophenyl)-5-[4-(methylsulfonyl)phenyl]-3(2H)-pyridazinone] it is 234 to 236 °C.
Compound `CS(=O)(=O)c1ccc(-c2cnn(-c3ccc(F)c(F)c3)c(=O)c2OCCC2CCCC2)cc1` [Example 439, 2-(3,4-Difluorophenyl)-4-(2-cyclopentyl-1-ethoxy)-5-[4-(methylsulfonyl)phenyl]-3(2H)-pyridazinone] showed a melting point of 100 to 101 °C.
The same measure for `CC(C)CCc1c(-c2ccc(S(C)(=O)=O)c(F)c2)cnn(-c2ccc(F)c(F)c2)c1=O` [Example 258, 2-(3,4-Difluorophenyl)-4-(3-methylbutyl)-5-[3-fluoro-4-(methylsulfonyl)phenyl]-3(2H)-pyridazinone]: 119 to 121 °C; for `CS(=O)(=O)c1ccc(-c2cnn(Cc3ccncc3)c(=O)c2-c2ccc(F)cc2)cc1` [Example 28, 2-(4-Pyridylmethyl)-4-(4-fluorophenyl)-5-[4-(methylsulfonyl)phenyl]-3(2H)-pyridazinone]: 153 to 156 °C; for `CS(=O)(=O)c1ccc(-c2cnn(-c3ccc(S(N)(=O)=O)cc3)c(=O)c2-c2ccc(F)cc2)cc1` [Example 186, 2-[4-(Aminosulfonyl)phenyl]-4-(4-fluorophenyl)-5-[4-(methylsulfonyl)phenyl]-3(2H)-pyridazinone]: 213 to 216 °C.
As to `CS(=O)(=O)c1ccc(-c2cnn(-c3ccc(C(F)(F)F)cc3)c(=O)c2-c2ccc(F)cc2)cc1` [Example 174, 2-(4-Trifluoromethylphenyl)-4-(4-fluorophenyl)-5-[4-(methylsulfonyl)phenyl]-3(2H)-pyridazinone], the melting point was in the range of 171 to 173 °C.
On to `CS(=O)(=O)c1ccc(-c2cnn(CC(F)(F)F)c(=O)c2NCCC#N)cc1` [Example 308, 2-(2,2,2-Trifluoroethyl)-4-(2-cyanoethylamino)-5-[4-(methylsulfonyl)phenyl]-3(2H)-pyridazinone], for which the melting point was 172 to 174 °C.
For `CS(=O)(=O)c1ccc(-c2cnn(CC(O)c3ccccc3)c(=O)c2-c2ccc(F)cc2)cc1` (stereo not shown) [Example 441, 2-(2-Hydroxy-2-phenylethyl)-4-(4-fluorophenyl)-5-[4-(methylsulfonyl)phenyl]-3(2H)-pyridazinone], the melting point is 205 to 207 °C.
As for `CS(=O)(=O)c1ccc(-c2cnn(Cc3cccc([N+](=O)[O-])c3)c(=O)c2-c2ccc(F)cc2)cc1` [Example 116, 2-(3-Nitrobenzyl)-4-(4-fluorophenyl)-5-[4-(methylsulfonyl)phenyl]-3(2H)-pyridazinone], the melting point was in the range of 156 to 157 °C.
Consider `Cc1ccc(-n2ncc(-c3ccc(S(C)(=O)=O)cc3)c(-c3ccc(F)cc3)c2=O)cc1` [Example 177, 2-(4-Methylphenyl)-4-(4-fluorophenyl)-5-[4-(methylsulfonyl)phenyl]-3(2H)-pyridazinone], for which the melting point fell in the range of 190 to 192 °C.
`CS(=O)(=O)c1ccc(-c2cnn(-c3ccc(F)cc3)c(=O)c2Cc2ccc(F)cc2)cc1` [Example 377, 2-(4-Fluorophenyl)-4-(4-fluorobenzyl)-5-[4-(methylsulfonyl)phenyl]-3(2H)-pyridazinone]: the melting point lay within 175 to 177 °C.
Consider `CS(=O)(=O)c1ccc(-c2cnn(CC(=O)c3csc4ccccc34)c(=O)c2-c2ccc(F)cc2)cc1` [Example 57, 2-[2-(Benzo[b]thien-3-yl)-2-oxoethyl]-4-(4-fluorophenyl)-5-[4-(methylsulfonyl)phenyl]-3(2H)-pyridazinone], for which the melting point lay within 183 to 184 °C.
Take `CC1CCCC1n1ncc(-c2ccc(S(C)(=O)=O)cc2)c(-c2ccc(F)cc2)c1=O` (stereo not shown) [Example 131, 2-(2-Methylcyclopentyl)-4-(4-fluorophenyl)-5-[4-(methylsulfonyl)phenyl]-3(2H)-pyridazinone]: the melting point was 180 to 181 °C.
As for `CC(C)COc1c(-c2ccc(S(C)(=O)=O)cc2)cnn(-c2ccc(F)c(Cl)c2)c1=O` [Example 537, 2-(3-Chloro-4-fluorophenyl)-4-(2-methyl-1-propoxy)-5-[4-(methylsulfonyl)phenyl]-3(2H)-pyridazinone], the melting point was in the range of 116 to 120 °C.
In turn, `NS(=O)(=O)c1ccc(-c2cnn(C3CC=CCC3)c(=O)c2-c2ccc(F)cc2)cc1` (stereo not shown) [Example 126] came in with a melting point of 206 to 208 °C.
In the case of `COc1ccc(CCNc2c(-c3ccc(S(C)(=O)=O)cc3)cnn(CC(F)(F)F)c2=O)cc1OC` [Example 298, 2-(2,2,2-Trifluoroethyl)-4-(3,4-dimethoxyphenethylamino)-5-[4-(methylsulfonyl)phenyl]-3(2H)-pyridazinone], the melting point is 163 to 165 °C.
In turn, `CS(=O)(=O)c1ccc(-c2cnn(-c3ccsc3)c(=O)c2-c2ccc(F)cc2)cc1` [Example 179, 2-(3-Thienyl)-4-(4-fluorophenyl)-5-[4-(methylsulfonyl)phenyl]-3(2H)-pyridazinone] showed a melting point of 200 to 202 °C.
In turn, `CS(=O)(=O)c1ccc(-c2cnn(CC(F)(F)F)c(=O)c2OC2CCc3ccccc32)cc1` (stereo not shown) [Example 276, 2-(2,2,2-Trifluoroethyl)-4-(1-indanyloxy)-5-[4-(methylsulfonyl)phenyl]-3(2H)-pyridazinone] registered a melting point of 113 to 114 °C.
For `CC(C)(O)CCOc1c(-c2ccc(S(N)(=O)=O)cc2)cnn(-c2ccc(F)c(F)c2)c1=O` [Example 472, 2-(3,4-Difluorophenyl)-4-(3-hydroxy-3-methyl-1-butoxy)-5-[4-(aminosulfonyl)phenyl]-3(2H)-pyridazinone], the melting point amounted to 181 °C.
In turn, `CCCC(CCOc1c(-c2ccc(S(C)(=O)=O)cc2)cnn(-c2ccc(F)cc2)c1=O)SC` (stereo not shown) [Example 433, 2-(4-Fluorophenyl)-4-(3-methylthio-1-hexyloxy)-5-[4-(methylsulfonyl)phenyl]-3(2H)-pyridazinone] came in with a melting point of 90 to 92 °C.
`Cc1ccc(-c2c(-c3ccc(S(C)(=O)=O)cc3)cnn(-c3ccc(F)cc3)c2=O)cc1F` [Example 250, 2-(4-Fluorophenyl)-4-(3-fluoro-4-methylphenyl)-5-[4-(methylsulfonyl)phenyl]-3(2H)-pyridazinone]: the melting point was in the range of 245 to 248 °C.
The figure for `CC(C)Oc1c(-c2ccc(S(C)(=O)=O)cc2)cnn(-c2cc(F)ccc2F)c1=O` [Example 204, 2-(2,5-Difluorophenyl)-4-(2-propoxy)-5-[4-(methylsulfonyl)phenyl]-3(2H)-pyridazinone] is 161 to 164 °C; for `CC(CCOc1c(-c2ccc(S(C)(=O)=O)cc2)cnn(-c2ccc(F)c(F)c2)c1=O)C(F)(F)F` (stereo not shown) [Example 435, 2-(3,4-Difluorophenyl)-4-(3-trifluoromethyl-1-butoxy)-5-[4-(methylsulfonyl)phenyl]-3(2H)-pyridazinone] it is 126 to 128 °C; for `CS(=O)(=O)c1ccc(-c2cnn(Cc3cc4ccccc4s3)c(=O)c2-c2ccc(F)cc2)cc1` [Example 61, 2-(2-Benzo[b]thienylmethyl)-4-(4-fluorophenyl)-5-[4-(methylsulfonyl)phenyl]-3(2H)-pyridazinone] it is 93 to 96 °C.
In the case of `Cc1ccsc1-n1ncc(-c2ccc(S(C)(=O)=O)cc2)c(-c2ccc(F)cc2)c1=O` [Example 95, 2-(3-Methyl-2-thienyl)-4-(4-fluorophenyl)-5-[4-(methylsulfonyl)phenyl]-3(2H)-pyridazinone], the melting point fell in the range of 215 to 217 °C.
In turn, `CC(C)CCOc1c(-c2ccc(S(C)(=O)=O)cc2)cnn(-c2cccc(C(F)(F)F)c2)c1=O` [Example 543, 2-[3-(Trifluoromethyl)phenyl]-4-(3-methyl-1-butoxy)-5-[4-(methylsulfonyl)phenyl]-3(2H)-pyridazinone] had a melting point of 82 to 85 °C.

As usually defined, the melting point is the temperature of the solid-liquid transition.

These data come from patent US20020028938A1, “Prostaglandin endoperoxide H synthase biosynthesis inhibitors” (priority 1997, published 2002).
